# Data published in patent publication US6583138B1, “Heterocyclic-ring condensed benzothiazine compound” (Eisai Co., Ltd., priority 1998, dated 2003).
# Where two headings read alike, the source gives them in different places.
# Legend:
# [1] = tested on: human basophils; assay: Inhibition of mediator (histamine, peptide leukotriene) liberation from human basophils stimulated with mite antigen; assay type: cell-based; settings: leukocyte fraction, enzyme immunoassay
# Experimental: (2) Inhibitory Effects on Various Mediators Release from Human Basophils
# 6 ml of 6% dextran (for separating leukocytes, having a high molecular weight) was added to 20 ml of heparinized blood. After stirring well, the resulting mixture was allowed to stand at 37° C. for 30 min and thus erythrocytes were precipitated. The upper layer was taken up and phosphate buffered saline was added thereto followed by centrifugation at 185 g for 8 minutes to give a crude leukocyte fraction. These cells were subjected to hypotonic hematolysis and then suspended in D-PBS(+) containing 0.1%-BSA. The resulting suspension was used in the subsequent experiment as the leukocyte fraction containing basophils. 0.4 ml of this cell suspension was preliminarily heated to 37° C. for 5 min and then 0.05 ml of a specimen solution was added thereto followed by a pretreatment at 37° C. for 15 min. Next, 0.05 ml of a mite antigen solution was added thereto to induce an antigen-antibody reaction. After 10 min, the reaction was ceased by ice-cooling. Then the reaction mixture was centrifuged again at 185 g for 10 min and histamine and peptide leukotrienes in the resulting supernatant were determined by using enzyme immunoassay kits. From the results of the assay, the activities of the a heterocyclic ring condensed benzothiazine compound of inhibiting the liberation of histamine and peptide leukotriene were determined.
# The results are given in Table 2, wherein the term “leukotriene” means peptide leukotriene.
# [2] = tested on: RBL-2H3 cells; assay: Inhibition of serotonin liberation from IgE-sensitized, antigen-stimulated RBL-2H3 cells; assay type: cell-based; settings: Rattus norvegicus, [3H]-serotonin release, IgE-sensitized cells stimulated with specific antigen
# Excerpt: (1) Inhibitory Effects on Various Mediators Release from Rat Basophilic Leukemia Cell Line (RBL-2H3)
# RBL-2H3cells (i.e., a cell line originating in rat cells), by stimulation with IgE sepecific antigen, not only release histamine and serotonin but also release and produce cytokines such as TNF α and prostaglandins which are inflammatory mediators. In this experimental system, inhibitory effects on various mediators release were examined by using serotonin as an indication.
# The cells were beforehand labeled with [^3H]-labeled serotonin and, at the same time, sensitized with the IgE antibody. After incubating with the compounds of the present invention, they were stimulated with the specific antigen. Then the inhibitory activity of each compound was calculated from the amount of the [^3H]-labeled serotonin thus liberated into the medium due to the stimulation and the amount of [^3H]-labeled serotonin liberated when no compound of the present invention was added.
# [3] = histamine, read-out: IC50 (μM) in mediator liberation from human basophils: histamine
# [4] = peptide leukotriene, read-out: IC50 (μM) in mediator liberation from human basophils: leukotriene
Compound,"IC50 [1, 3] [µM]","IC50 [1, 4] [µM]",IC50 [2] [µM]
"Cc1ccc2c(c1C)N(CCCNCc1ccccc1)c1ccsc1[S+]2[O-] (centres unmarked) [Example 1, 9-(3-Benzylaminopropyl)-7,8-dimethyl-3-thieno [1,4]benzothiazine-4-oxide]",10 to 30,10,2
Cc1ccc2c(c1C)N(CCCNC(C)(C)c1ccccc1)c1ccsc1[S+]2[O-] (centres unmarked) [Example 2],30,10 to 30,
"Cc1ccc2c(c1C)N(CCCN)c1ccsc1[S+]2[O-] (centres unmarked) [Example 3, 9-(3-Aminopropyl)-7,8-dimethyl-3-thieno[1,4]benzothiazine-4-oxide]",,,8
"Cc1ccc2c(c1C)N(CCCNCc1cccs1)c1ccsc1[S+]2[O-] (centres unmarked) [Example 4, 7,8-Dimethyl-9-[3-(2-thiophenyl)methylaminopropyl]-3-thieno[1,4]benzothiazine-4-oxide]",10 to 30,10,2
COc1ccc(CNCCCN2c3ccsc3[S+]([O-])c3ccc(C)c(C)c32)o1 (centres unmarked) [Example 5],,,6
COc1ccsc1CNCCCN1c2ccsc2[S+]([O-])c2ccc(C)c(C)c21 (centres unmarked) [Example 6],30,10 to 30,2
"Cc1ccc2c(c1C)N(CCCNC(C)(C)c1ccccc1)c1c(Br)csc1[S+]2[O-] (stereo not drawn) [Example 7, 1-Bromo-7,8-dimethyl-9-[3-(α,α-dimethylbenzyl)aminopropyl]-3-thieno[1,4]benzothiazine-4-oxide]",3 to 10,3 to 10,2
"Cc1ccc2c(c1C)N(CCCNCc1ccccc1)c1c(Br)csc1[S+]2[O-] (centres unmarked) [Example 8, 9-(3-benzylaminopropyl)-7,8-dimethyl-3-thieno[1,4]benzothiazine-4-oxide]",10,3,1
COc1ccsc1CNCCCN1c2c(Br)csc2[S+]([O-])c2ccc(C)c(C)c21 (centres unmarked) [Example 9],10 to 30,3,0.5
Cc1ccc2c(c1C)N(CCCNCc1cccc(F)c1O)c1c(Br)csc1[S+]2[O-] (centres unmarked) [Example 10],30,3 to 10,0.5
"Cc1ccc2c(c1C)N(CCCNCc1ccccc1)c1c(CO)csc1[S+]2[O-] (centres unmarked) [Example 11, 9-(3-benzylaminopropyl)-1-hydroxymethyl-7,8dimethyl-3-thieno[1,4]benzothiazine-4-oxide]",10,3,5
"Cc1ccc2c(c1C)N(CCCNCc1ccccc1)c1c(sc(CO)c1Br)[S+]2[O-] (centres unmarked) [Example 12, 1-Bromo-9-(3-benzylaminopropyl)-2-hydroxymethyl-7,8-dimethyl-3-thieno[1,4]benzothiazine-4-oxide]",10,3,4
Cc1ccc2c(c1C)N(CCCN)c1cccnc1[S+]2[O-] (centres unmarked) [Example 13],,,3
Cc1ccc2c(c1C)N(CCCNCc1ccccc1)c1cccnc1[S+]2[O-] (centres unmarked) [Example 15],,,0.5
Cc1ccc2c(c1C)N(CCCNCc1ccccc1O)c1cccnc1[S+]2[O-] (centres unmarked) [Example 16],10,10 to 30,2
COc1cccc(CNCCCN2c3cccnc3[S+]([O-])c3ccc(C)c(C)c32)c1O (centres unmarked) [Example 17],10 to 30,10 to 30,2
Cc1ccc2c(c1C)N(CCCNCc1cccc(C)c1O)c1cccnc1[S+]2[O-] (centres unmarked) [Example 18],30,10 to 30,2
Cc1ccc2c(c1C)N(CCCCNCc1ccccc1)c1cccnc1[S+]2[O-] (centres unmarked) [Example 19],,,1
COc1ccccc1CNCCCN1c2cccnc2[S+]([O-])c2ccc(C)c(C)c21 (centres unmarked) [Example 20],,,5
COc1cccc(CNCCCN2c3cccnc3[S+]([O-])c3ccc(C)c(C)c32)c1 (centres unmarked) [Example 24],,,4

Compound,"IC50 [1, 3] [µM]","IC50 [1, 4] [µM]",IC50 [2] [µM]
COc1ccc(CNCCCN2c3cccnc3[S+]([O-])c3ccc(C)c(C)c32)cc1 (centres unmarked) [Example 25],,,2
Cc1ccc2c(c1C)N(CCCNCN1CCN(Cc3ccccc3)CC1)c1cccnc1[S+]2[O-] (centres unmarked) [Example 26],,,2
Cc1ccc2c(c1C)N(CCCNCc1ccc(Cl)cc1Cl)c1cccnc1[S+]2[O-] (centres unmarked) [Example 31],10 to 30,10,2
COc1c(CNCCCN2c3cccnc3[S+]([O-])c3ccc(C)c(C)c32)ccc(Cl)c1Cl (centres unmarked) [Example 33],10 to 30,3 to 10,2
Cc1ccc2c(c1C)N(CCCNC(C)(C)c1ccccc1)c1cccnc1[S+]2[O-] (centres unmarked) [Example 34],,,5
Cc1ccc2c(c1C)N(CCCN(C)Cc1ccccc1)c1cccnc1[S+]2[O-] (centres unmarked) [Example 35],,,3
Cc1ccc2c(c1C)N(CCCNCc1ccccc1)c1cnccc1[S+]2[O-] (centres unmarked) [Example 36],,,4
COc1cccc(CNCCCN2c3cnccc3[S+]([O-])c3ccc(C)c(C)c32)c1O (centres unmarked) [Example 37],30,30,3
Cc1ccc2c(c1C)N(CCCNCc1ccccc1N(C)C)c1cnccc1[S+]2[O-] (centres unmarked) [Example 38],,,4
Cc1ccc2c(c1C)N(CCCNCN1CCN(Cc3ccccc3)CC1)c1cnccc1[S+]2[O-] (centres unmarked) [Example 39],,,3
Cc1ccc2c(c1C)N(CCCNCc1ccccn1)c1cnccc1[S+]2[O-] (centres unmarked) [Example 40],,,4
Cc1ccc2c(c1C)N(CCCNCc1cccc(F)c1O)c1cnccc1[S+]2[O-] (centres unmarked) [Example 41],,,3
COc1ccc2c(n1)[S+]([O-])c1ccc(C)c(C)c1N2CCCNCc1ccccc1 (centres unmarked) [Example 43],30,10,2
Cc1ccc2c(n1)[S+]([O-])c1ccc(C)c(C)c1N2CCCNCc1ccccc1 (centres unmarked) [Example 44],,,2
Cc1ccc2c(c1C)N(CCCNCc1ccccc1)c1cc(Br)cnc1[S+]2[O-] (centres unmarked) [Example 45],,,1
Cc1ccc2c(c1C)N(CCCNCc1ccccc1)c1cc(Cl)cnc1[S+]2[O-] (centres unmarked) [Example 46],,,2
Cc1cnc2c(c1)N(CCCNCc1ccccc1)c1c(ccc(C)c1C)[S+]2[O-] (centres unmarked) [Example 47],,,3
Cc1ccc2c(c1C)N(CCCNCc1ccccc1)c1cc(C#N)cnc1[S+]2[O-] (centres unmarked) [Example 48],,,4
CCCOc1ccc2c(n1)[S+]([O-])c1ccc(C)c(C)c1N2CCCNCc1ccccc1 (centres unmarked) [Example 49],10 to 30,3,2
CCOc1ccc2c(n1)[S+]([O-])c1ccc(C)c(C)c1N2CCCNCc1ccccc1 (centres unmarked) [Example 52],10 to 30,3,3
